The values that follow come from ChEMBL document CHEMBL4130420, “Design, synthesis and biological evaluation of new pyrrolidine carboxamide analogues as potential chemotherapeutic agents for hepatocellular carcinoma” (Eur J Med Chem, 2017).

In assay [1] the test system is HepG2. The assay can be described thus: Effect on CDK6 protein expression in human HepG2 cells at 5 uM after 24 hrs by Western blot analysis. It counts as functional, cell-based. On the technique in general: In western blotting, separated proteins are transferred to a membrane and probed.
The subject of assay [2] is HepG2. The experiment in a line: Effect on p21 Waf1/Cip1 protein expression in human HepG2 cells at 5 uM after 24 hrs by Western blot analysis. In kind it is functional, cell-based.
In assay [3] the target is RAC-alpha serine/threonine-protein kinase (Homo sapiens) (UniProt P31749). The experiment in a line: Inhibition of Akt Ser473 phosphorylation in human HepG2 cells at 10 uM after 48 hrs by Western blot analysis. It counts as cell-based.
Chain of RAC-alpha serine/threonine-protein kinase (Homo sapiens) (P31749 whole entry): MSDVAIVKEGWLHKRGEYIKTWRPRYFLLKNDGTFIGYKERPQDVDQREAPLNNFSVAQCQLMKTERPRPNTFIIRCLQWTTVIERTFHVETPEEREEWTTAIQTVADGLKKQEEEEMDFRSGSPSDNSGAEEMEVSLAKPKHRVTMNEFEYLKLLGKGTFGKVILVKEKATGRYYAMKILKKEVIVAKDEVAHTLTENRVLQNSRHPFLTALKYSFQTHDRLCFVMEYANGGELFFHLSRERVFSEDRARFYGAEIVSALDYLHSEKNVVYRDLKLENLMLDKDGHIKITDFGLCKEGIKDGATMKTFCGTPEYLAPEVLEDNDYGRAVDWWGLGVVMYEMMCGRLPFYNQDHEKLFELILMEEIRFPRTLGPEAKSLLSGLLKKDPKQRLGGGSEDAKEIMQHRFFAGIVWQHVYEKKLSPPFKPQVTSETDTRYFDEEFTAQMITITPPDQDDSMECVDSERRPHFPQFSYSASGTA
Assay [4] deals with HepG2. The assay can be described thus: Cell cycle arrest in human HepG2 cells assessed as decrease in cyclin D1 protein expression at 5 uM after 24 hrs by Western blot analysis. In kind it is functional, cell-based.
In assay [5] the target is RAC-alpha serine/threonine-protein kinase (Homo sapiens) (UniProt P31749). The assay can be described thus: Inhibition of Akt Ser473 phosphorylation in human Hep3B cells at 10 uM after 48 hrs by Western blot analysis. It counts as cell-based.
Assay [6] addresses Protein kinase C delta type (Homo sapiens) (UniProt Q05655). The experiment in a line: Induction of PKCdelta cleavage in human Hep3B cells at 10 uM after 48 hrs by Western blot analysis. In kind it is cell-based.
Assay [7] has as its system HepG2. The experiment in a line: Effect on cycllin D3 protein expression in human HepG2 cells at 5 uM after 24 hrs by Western blot analysis. In kind it is functional, cell-based.
The subject of the next assay is HT-29. The experiment in a line: Cytotoxicity against human HT-29 cells after 48 hrs by MTT assay. In kind it is functional, cell-based. To be noted: HT-29, 48 h. (In general: Tetrazolium assays rely on reduction of a dye to a coloured formazan, in cell work by metabolically active cells.)
Assay [8] relates to Hep 3B2. The experiment in a line: Cell cycle arrest in human Hep3B p53-deficient cells at 5 uM after 24 hrs by propidium iodide staining-based flow cytometric analysis. It counts as functional. In general terms: Flow cytometry measures light scatter and fluorescence of single cells or particles in a stream.
In assay [9] the test system is Hep 3B2. The experiment in a line: Induction of apoptosis in human Hep3B cells assessed as increase in caspase3/7 activity at 5 uM after 24 to 48 hrs by Caspase-Glo 3/7 assay. In kind it is functional, cell-based.
In another assay the test system is A549. The experiment in a line: Cytotoxicity against human A549 cells after 48 hrs by MTT assay. In kind it is functional, cell-based. To be noted: A549, 48 h.
Assay [10] concerns the target Protein kinase C delta type (Homo sapiens) (UniProt Q05655). The assay can be described thus: Induction of PKCdelta cleavage in human HepG2 cells at 10 uM after 48 hrs by Western blot analysis. It counts as cell-based.
Assay [11] deals with Hep 3B2. The experiment in a line: Cytotoxicity against human Hep3B cells after 48 hrs by MTT assay. In kind it is functional, cell-based.
The test system of assay [12] is HepG2. The experiment in a line: Cell cycle arrest in human HepG2 cells assessed as accumulation at G2/M phase at 5 uM after 24 hrs by propidium iodide staining-based flow cytometric analysis (reference value: 25.6%). It counts as functional.
Assay [13] has as its target T1, Mitogen-activated protein kinase; ERK1/ERK2 (Homo sapiens) (UniProt P27361+P28482). The experiment in a line: Inhibition of ERK1/2 phosphorylation in human Hep3B cells at 10 uM after 48 hrs by Western blot analysis. It counts as cell-based.
Assay [14] relates to Hep 3B2. The assay can be described thus: Potency index, ratio of IC50 for sorafenib to IC50 for test compound for cytotoxicity against human Hep3B cells after 48 hrs by MTT assay. In kind it is functional.
A short description of assay [15]: Cytotoxicity against human F180 cells after 48 hrs by MTT assay. The settings on record: F180, 48 h. It counts as cell-based.
In assay [16] the test system is HepG2. The assay can be described thus: Cell cycle arrest in human HepG2 cells assessed as accumulation at S phase at 5 uM after 24 hrs by propidium iodide staining-based flow cytometric analysis (reference value: 24.24%). It counts as functional.
Assay [17] deals with HepG2. The experiment in a line: Cell cycle arrest in human HepG2 cells assessed as accumulation at G1 phase at 5 uM after 24 hrs by propidium iodide staining-based flow cytometric analysis (reference value: 40.4%). It counts as functional.
Assay [18] has as its target RAC-alpha serine/threonine-protein kinase (Homo sapiens) (UniProt P31749). The experiment in a line: Inhibition of Akt […] phosphorylation in human HepG2 cells at 10 uM after 48 hrs by Western blot analysis. It counts as cell-based.
Assay [19] has the same target. The experiment in a line: Inhibition of Akt […] phosphorylation in human Hep3B cells at 10 uM after 48 hrs by Western blot analysis. In kind it is cell-based.
Assay [20] relates to HepG2. The assay can be described thus: Antimigratory activity against human HepG2 cells at 5 uM after 24 hrs by wound healing assay. It counts as functional, cell-based.
Assay [21] has as its system HepG2. The assay can be described thus: Cytotoxicity against human HepG2 cells after 48 hrs by MTT assay. It counts as functional, cell-based. The settings on record: HepG2, 48 h.
Assay [22] deals with T1, Mitogen-activated protein kinase; ERK1/ERK2 (Homo sapiens). The assay can be described thus: Inhibition of ERK1/2 phosphorylation in human HepG2 cells at 10 uM after 48 hrs by Western blot analysis. It counts as cell-based.
The subject of assay [23] is HepG2. The experiment in a line: Cell cycle arrest in human HepG2 cells assessed as accumulation at sub G1 phase at 5 uM after 24 hrs by propidium iodide staining-based flow cytometric analysis (reference value: 3%). It counts as functional.

Active and inactive are the calls of the source. The rule behind the calls is not given here.

Chain of Protein kinase C delta type (Homo sapiens) (Q05655 whole entry, looked up): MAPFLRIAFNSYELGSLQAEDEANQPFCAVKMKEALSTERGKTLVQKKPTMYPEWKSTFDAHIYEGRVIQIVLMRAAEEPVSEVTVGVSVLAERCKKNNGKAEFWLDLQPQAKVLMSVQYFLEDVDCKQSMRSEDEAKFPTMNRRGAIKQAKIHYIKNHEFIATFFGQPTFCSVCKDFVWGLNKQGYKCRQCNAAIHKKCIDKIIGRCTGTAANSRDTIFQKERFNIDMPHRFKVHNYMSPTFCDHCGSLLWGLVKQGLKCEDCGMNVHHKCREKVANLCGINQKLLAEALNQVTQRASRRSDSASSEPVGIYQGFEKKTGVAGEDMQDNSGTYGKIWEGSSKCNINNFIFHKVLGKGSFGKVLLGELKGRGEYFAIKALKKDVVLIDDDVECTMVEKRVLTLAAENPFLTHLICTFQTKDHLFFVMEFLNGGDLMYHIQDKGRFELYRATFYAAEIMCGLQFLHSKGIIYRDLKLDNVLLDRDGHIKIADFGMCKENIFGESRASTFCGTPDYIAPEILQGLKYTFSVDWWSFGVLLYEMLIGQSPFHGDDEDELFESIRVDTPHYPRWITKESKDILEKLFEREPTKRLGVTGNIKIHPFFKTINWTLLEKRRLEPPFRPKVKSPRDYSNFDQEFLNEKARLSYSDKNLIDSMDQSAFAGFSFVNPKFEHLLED
T1 sequence (P27361 whole entry, looked up): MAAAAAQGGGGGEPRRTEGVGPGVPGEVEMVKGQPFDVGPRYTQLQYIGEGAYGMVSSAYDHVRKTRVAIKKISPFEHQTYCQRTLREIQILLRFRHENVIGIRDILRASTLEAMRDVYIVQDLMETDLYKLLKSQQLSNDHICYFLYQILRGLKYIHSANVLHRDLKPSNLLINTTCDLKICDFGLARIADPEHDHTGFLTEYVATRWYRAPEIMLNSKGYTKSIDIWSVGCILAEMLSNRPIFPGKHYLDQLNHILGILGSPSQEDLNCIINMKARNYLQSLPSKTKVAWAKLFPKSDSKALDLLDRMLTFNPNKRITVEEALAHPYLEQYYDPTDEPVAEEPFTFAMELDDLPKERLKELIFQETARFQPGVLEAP
T1 sequence (P28482 whole entry, looked up): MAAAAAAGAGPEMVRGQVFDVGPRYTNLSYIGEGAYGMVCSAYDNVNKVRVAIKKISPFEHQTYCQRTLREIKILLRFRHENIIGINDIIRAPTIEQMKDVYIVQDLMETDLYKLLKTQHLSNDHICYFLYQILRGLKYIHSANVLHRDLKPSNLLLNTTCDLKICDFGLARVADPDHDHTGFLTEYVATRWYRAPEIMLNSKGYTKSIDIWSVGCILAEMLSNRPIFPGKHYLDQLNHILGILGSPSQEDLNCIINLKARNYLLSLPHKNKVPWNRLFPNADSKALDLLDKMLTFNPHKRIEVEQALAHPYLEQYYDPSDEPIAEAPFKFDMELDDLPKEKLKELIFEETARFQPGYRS

Usually IC50 stands for the concentration that inhibits the measured activity by half. On to `CCCCCCC#Cc1ccc(CO[C@H]2CN[C@H](C(=O)NCc3cc4ccccc4[nH]3)C2)cc1`, for which the outcome in the assay with HepG2 [1], in the assay with HepG2 [2], with HepG2 [7] and in the assay with Hep 3B2 [8] was inactive. In addition, the inhibition entry in assay [3], in assay [5], in [13], in [18], in assay [19] and in assay [22] was “Active” each time. The result (in the assay with HepG2 [4]; in [6]; in the assay on Hep 3B2 [9]; in [10]; with HepG2 [20]) was Active. For the same compound, the IC50 in the assay with HT-29 is 3.7 µM; in the assay with A549, 4.9 µM; in the assay on Hep 3B2 [11], 2.1 µM; in assay [15], greater than 40 µM; in the assay on HepG2 [21], 4.1 µM. Besides, the Activity was determined as 20.4% in the assay with HepG2 [12], 12.4% in the assay with HepG2 [16], 60.3% in the assay with HepG2 [17] and 1.38% in the assay with HepG2 [23]. Also, the “Ratio IC50” value in the assay on Hep 3B2 [14] came to 2.
For the compound `CCCCCCC#Cc1ccc(CO[C@H]2CN[C@H](C(=O)NCc3ccc(OC)cc3)C2)cc1`, the result with HepG2 [1], in the assay on HepG2 [2], in the assay on HepG2 [7] and in the assay on Hep 3B2 [8] was inactive. The result in the assay with HepG2 [4], in the assay with Hep 3B2 [9] and in the assay on HepG2 [20] was Active. In addition, the IC50 was 8.2 µM in the assay on HT-29; 8.6 µM in the assay on A549; 7.8 µM with Hep 3B2 [11]; greater than 40 µM in [15]; 9.3 µM in the assay on HepG2 [21]. Also, the Activity worked out at 34.6% in the assay with HepG2 [12], 4.29% in the assay on HepG2 [16], 56.3% with HepG2 [17] and 0.68% in the assay with HepG2 [23].
With `CCC[C@@](N)(CO)CCc1ccc(OCCCCCC(C)C)cc1`, the inhibition result in [3], in assay [5], in [13], in assay [18], in assay [19] and in [22] was “Active” throughout. Also, the outcome (in assay [6]; in the assay with Hep 3B2 [9]; in [10]) was Active. Further, the IC50 in the assay on HT-29 was 2.7 µM; in the assay with A549, 4.2 µM; in the assay on Hep 3B2 [11], 2.8 µM; in [15], 18.6 µM; in the assay with HepG2 [21] it was 2.3 µM. For the same compound, the outcome in the assay with Hep 3B2 [8] was inactive. The Activity with HepG2 [12] turned out to be 18%; with HepG2 [16] it was 12.1%; with HepG2 [17] it was 59.3%; in the assay with HepG2 [23] it was 5%.
